Experiments:
endogenous CGRP receptor = endogenous CGRP receptor (Homo sapiens, UniProt O60894+Q16602); test: CGRP functional antagonism using SK-N-MC-BLA (4C10), β-lactamase transcriptional reporter assay; assay type: cell-based; settings: SK-N-MC (4C10) cells, inhibition of β-lactamase expression in the presence of 200 pM CGRP
[1] = target: T1, CGRP receptor (SK-N-MC membrane) (Homo sapiens, UniProt O60894+Q16602); test: I125-CGRP binding displacement assay on purified SK-N-MC membrane
T1 construct: Purified SK-N-MC membrane was purchased from Perkin Elmer; purchased Perkin Elmer; host or cells: SK-N-MC membrane
Method: Purified SK-N-MC membrane was purchased from Perkin Elmer. The membrane was thawed quickly and placed on ice. The compounds were diluted with CGRP binding solution (25 mM Tris-HCl, pH7.4, 5 mM MgCl2, 0.1% BSA and 0.05% Tween). The membrane was diluted 1:20 with the binding solution and homogenized with Tissue Matster-50 Homogenizer (Omni International) for 30 sec. The homogenized membrane was added to compounds in the binding solution. […] After 2 hour incubation at room temperature, the reaction was stopped by rapid filtration through 0.5% PEI treated GF/C filter plate (Perkin Elmer) and the filter plate was washed with ice-cold washing solution (50 mM Tris HCl, pH7.4, 5 mM MgCl2 and 0.1% BSA) using cell harvestor (Tomtec). The radioactivity of the filter plates were read on Topcount (Packard). The nonspecific binding was determined in the control reaction where 1 uM unlabelled CGRP was preincubated with the membrane prior to I125-CGRP addition. The total binding was determined in the control reaction of the membrane and I125-CGRP in the absence of compound. The percent displacement of I125-CGRP with compounds was calculated using nonspecific and total binding controls. The curve fitting was carried out using MOD3.

endogenous CGRP receptor, sequence (Q16602 23-461): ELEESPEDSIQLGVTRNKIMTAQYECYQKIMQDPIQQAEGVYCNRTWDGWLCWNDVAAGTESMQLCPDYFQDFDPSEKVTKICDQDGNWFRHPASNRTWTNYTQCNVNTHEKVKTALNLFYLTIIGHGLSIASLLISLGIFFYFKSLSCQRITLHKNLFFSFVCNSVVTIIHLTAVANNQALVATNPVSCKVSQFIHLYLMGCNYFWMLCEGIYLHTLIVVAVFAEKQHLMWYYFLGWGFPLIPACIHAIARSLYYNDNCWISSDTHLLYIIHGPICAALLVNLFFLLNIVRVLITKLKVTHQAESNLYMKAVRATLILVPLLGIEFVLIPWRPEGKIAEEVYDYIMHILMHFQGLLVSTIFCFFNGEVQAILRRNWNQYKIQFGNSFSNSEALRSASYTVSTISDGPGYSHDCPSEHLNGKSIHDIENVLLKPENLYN
endogenous CGRP receptor, sequence (O60894 27-148): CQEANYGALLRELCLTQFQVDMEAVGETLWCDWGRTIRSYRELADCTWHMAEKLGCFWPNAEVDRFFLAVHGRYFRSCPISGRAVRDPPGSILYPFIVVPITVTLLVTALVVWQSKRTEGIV
T1 sequence (Q16602 23-461): as the sequence (Q16602 23-461) above
T1 sequence (O60894 27-148): as the sequence (O60894 27-148) above

SMILES | IC50 (endogenous CGRP receptor) [nM] | Ki [1] [nM]
CC(C)CCN1C(=O)C(CC(=O)N2CCC(N3Cc4ccccc4NC3=O)CC2)SC1c1ccccn1 (centres unmarked) [Compound 266] | < 1000 | < 1000
CC(C)CCN1C(=O)C(CC(=O)N2CCC(N3Cc4ccccc4NC3=O)CC2)SC1c1ccccc1Br (centres unmarked) [Compound 268] | < 1000 | < 1000
O=C(CC1SC(c2ccccc2)N(CC2CC2)C1=O)N1CCC(N2Cc3ccccc3NC2=O)CC1 (centres unmarked) [Compound 271] | < 1000 | < 1000
O=C(CC1SC(c2ccccc2)N(Cc2cccnc2)C1=O)N1CCC(N2Cc3ccccc3NC2=O)CC1 (centres unmarked) [Compound 278] | < 1000 | < 1000
O=C(CC1SC(c2cccc(F)c2F)N(CC2CCCCC2)C1=O)N1CCC(N2CCc3ccccc3NC2=O)CC1 (centres unmarked) [Compound 279] | < 1000 | < 1000
Cc1cc(C2SC(CC(=O)N3CCC(N4Cc5ccccc5NC4=O)CC3)C(=O)N2CCC(C)C)cc2cn[nH]c12 (centres unmarked) [Compound 282] | < 1000 | < 1000
COc1ccc(C2SC(CC(=O)N3CCC(N4Cc5ccccc5NC4=O)CC3)C(=O)N2CCC(C)C)c(F)c1 (centres unmarked) [Compound 283] | 1000 to 5000 | < 1000
COc1ccc(C2SC(CC(=O)N3CCC(n4cc(-c5ccccc5)[nH]c4=O)CC3)C(=O)N2CCC(C)C)cc1 (centres unmarked) [Compound 286] | 1000 to 5000 | > 5000
O=C(CC1SC(c2ccccc2)N(c2ccc3[nH]ncc3c2)C1=O)N1CCC(N2Cc3ccccc3NC2=O)CC1 (centres unmarked) [Compound 287] | 1000 to 5000 | 1000 to 5000
CCN1CCC2(CC1)SC(CC(=O)N1CCC(N3CCc4ccccc4NC3=O)CC1)C(=O)N2CCC(C)(C)C (centres unmarked) [Compound 288] | < 1000 | < 1000
CC(C)CCN1C(=O)C(CC(=O)N2CCC(n3c(=O)[nH]c4ccccc43)CC2)SC1c1ccccc1-n1ccnc1 (centres unmarked) [Compound 289] | < 1000 | < 1000
CC(C)CCN1C(=O)C(CC(=O)N2CCC(n3c(=O)[nH]c4ccccc43)CC2)S[C@H]1c1ccccc1N1CCC(O)CC1 (some centres unmarked) [Compound 290] | < 1000 | < 1000
CC(C)(C)CCN1C(=O)C(CC(=O)N2CCC(n3c(=O)[nH]c4ccccc43)CC2)SC1c1ccccc1-n1ccnc1 (centres unmarked) [Compound 295] | < 1000 | < 1000
CC(C)(C)CCN1C(=O)C(CC(=O)N2CCC(n3c(=O)[nH]c4ccccc43)CC2)S[C@H]1c1ccccc1N1CCC(O)CC1 (some centres unmarked) [Compound 296] | < 1000 | < 1000
CC(C)(C)CCN1C(=O)C(CC(=O)N2CCC(n3c(=O)[nH]c4ccccc43)CC2)SC1c1ccccc1-n1cccn1 (centres unmarked) [Compound 297] | < 1000 | < 1000
CN(C)c1ccccc1C1SC(CC(=O)N2CCC(n3c(=O)[nH]c4ccccc43)CC2)C(=O)N1CCC(C)(C)C (centres unmarked) [Compound 299] | < 1000 | < 1000
CC(C)(C)CCN1C(=O)C(CC(=O)N2CCC(n3c(=O)[nH]c4ccccc43)CC2)S[C@H]1c1ccccc1N1CCC(O)CC1 (some centres unmarked) [Compound 301] | < 1000 | < 1000
CN1CCN(c2ccccc2C2SC(CC(=O)N3CCC(n4c(=O)[nH]c5ccccc54)CC3)C(=O)N2CCC(C)(C)C)CC1 (centres unmarked) [Compound 302] | < 1000 | < 1000
CN1CCN(c2ccccc2C2SC(CC(=O)N3CCC(c4cc5ccccc5[nH]c4=O)CC3)C(=O)N2CCC(C)(C)C)CC1 (centres unmarked) [Compound 303] | < 1000 | < 1000
CC(C)(C)CCN1C(=O)C(CC(=O)N2CCC(N3Cc4ccccc4NC3=O)CC2)SC1c1ncc[nH]1 (centres unmarked) [Compound 306] | > 5000 | > 5000
CN1CCN(c2ccccc2C2N(CCC(C)(C)C)C(=O)C(CC(=O)N3CCC(N4Cc5ccccc5NC4=O)CC3)[S+]2[O-])CC1 (centres unmarked) [Compound 307] | < 1000 | < 1000
CC(C)(C)CCN1C(=O)C(CC(=O)N2CCC(N3Cc4ccccc4NC3=O)CC2)SC12CCCc1ccccc12 (centres unmarked) [Compound 315] | < 1000 | < 1000
CC(C)(C)CCN1C(=O)C(CC(=O)N2CCC(N3Cc4ccccc4NC3=O)CC2)SC12CCc1ccccc12 (centres unmarked) [Compound 317] | 1000 to 5000 | < 1000
CN1CCN(c2c(F)cccc2C2SC(CC(=O)N3CCC(N4CCc5ccccc5NC4=O)CC3)C(=O)N2CCC(C)(C)C)CC1 (centres unmarked) [Compound 324] | < 1000 | < 1000
CN1CCN(c2ccccc2C2SC(CC(=O)N3CCC4(CC3)CC(=O)Nc3ccccc3O4)C(=O)N2CCC(C)(C)C)CC1 (centres unmarked) [Compound 328] | < 1000 | < 1000

SMILES | IC50 (endogenous CGRP receptor) [nM] | Ki [1] [nM]
CN1CCN(c2ccccc2C2SC(CC(=O)N3CCC4(CC3)CNC(=O)c3ccccc3O4)C(=O)N2CCC(C)(C)C)CC1 (centres unmarked) [Compound 330] | 1000 to 5000 | < 1000
CC(C)CCN1C(=O)C(CC(=O)N2CCC3(CC2)CC(=O)c2ccccc2O3)SC1c1ccccc1N1CCN(C)CC1 (centres unmarked) [Compound 331] | < 1000 | < 1000
CC(C)N1CCN(c2c(F)cccc2C2SC(CC(=O)N3CCC(N4CCc5ccccc5NC4=O)CC3)C(=O)N2CCC(C)(C)C)CC1 (centres unmarked) [Compound 340] | > 5000 | > 5000
CC(C)N1CCN(c2c(F)cccc2C2SC(CC(=O)N3CCC(n4c(=O)[nH]c5ncccc54)CC3)C(=O)N2CCC(C)(C)C)CC1 (centres unmarked) [Compound 341] | < 1000 | < 1000
CCN1CCN(c2c(F)cccc2C2SC(CC(=O)N3CCC(N4CCc5ccccc5NC4=O)CC3)C(=O)N2CCC(C)(C)C)CC1 (centres unmarked) [Compound 345] | < 1000 | < 1000
CN1CCN(c2cccc(F)c2C2SC(CC(=O)N3CCC(n4c(=O)[nH]c5ccccc54)CC3)C(=O)N2CCC(C)(C)C)CC1 (centres unmarked) [Compound 348] | 1000 to 5000 | > 5000
CCN1CCN(c2c(F)cccc2C2SC(CC(=O)N3CCC(n4c(=O)[nH]c5ncccc54)CC3)C(=O)N2CCC(C)(C)C)CC1 (centres unmarked) [Compound 349] | < 1000 | < 1000
CN1CCN(c2cccc(F)c2C2SC(CC(=O)N3CCC(n4c(=O)[nH]c5ncccc54)CC3)C(=O)N2CCC(C)(C)C)CC1 (centres unmarked) [Compound 350] | < 1000 | < 1000
CN1CCN(c2ccc(F)cc2C2SC(CC(=O)N3CCC(N4Cc5ccccc5NC4=O)CC3)C(=O)N2CCC(C)(C)C)CC1 (centres unmarked) [Compound 351] | 1000 to 5000 | < 1000
CN1CCN(c2ccc(F)cc2C2SC(CC(=O)N3CCC(n4c(=O)[nH]c5ncccc54)CC3)C(=O)N2CCC(C)(C)C)CC1 (centres unmarked) [Compound 353] | < 1000 | < 1000
CN1CCN(c2ccc(F)cc2C2SC(CC(=O)N3CCC(n4c(=O)[nH]c5ccccc54)CC3)C(=O)N2CCC(C)(C)C)CC1 (centres unmarked) [Compound 354] | < 1000 | < 1000
CN1CCN(c2c(Cl)cccc2C2SC(CC(=O)N3CCC(n4c(=O)[nH]c5ncccc54)CC3)C(=O)N2CCC(C)(C)C)CC1 (centres unmarked) [Compound 357] | < 1000 | < 1000
CN1CCN(c2cc(F)ccc2C2SC(CC(=O)N3CCC(n4cc(-c5ccccc5)[nH]c4=O)CC3)C(=O)N2CCC(C)(C)C)CC1 (centres unmarked) [Compound 363] | < 1000 | < 1000
CCCCN1CCN(c2ccccc2C2SC(CC(=O)N3CCC(N4CCc5ccccc5NC4=O)CC3)C(=O)N2CCC(C)(C)C)CC1 (centres unmarked) [Compound 365] | < 1000 | < 1000
CC(C)(C)CCN1C(=O)C(CC(=O)N2CCC(N3Cc4ccccc4NC3=O)CC2)SC1c1ccccc1N1CCN(c2ccccc2)CC1 (centres unmarked) [Compound 367] | < 1000 | < 1000
CC(C)(C)CCN1C(=O)C(CC(=O)N2CCC(N3Cc4ccccc4NC3=O)CC2)SC1c1ccccc1N1CCN(CCO)CC1 (centres unmarked) [Compound 371] | < 1000 | < 1000
CN1CCN(c2ccccc2[C@@H]2S[C@](C)(CC(=O)N3CCC(N4CCc5ccccc5NC4=O)CC3)C(=O)N2CCC(C)(C)C)CC1 [Compound 375] | < 1000 | < 1000
CN1CCN(c2ccccc2[C@H]2S[C@](C)(CC(=O)N3CCC(n4c(=O)[nH]c5ncccc54)CC3)C(=O)N2CCC(C)(C)C)CC1 [Compound 380] | < 1000 | < 1000
CC(C)(C)CCN1C(=O)C(CC(=O)N2CCC(N3CCc4ccccc4NC3=O)CC2)SC1c1cccc(F)c1N1CCN(C2CC2)CC1 (centres unmarked) [Compound 389] | < 1000 | < 1000
CC(C)(C)CCN1C(=O)C(CC(=O)N2CCC(N3CCc4ccccc4NC3=O)CC2)SC1c1cccc(F)c1N1CCNCC1 (centres unmarked) [Compound 391] | > 5000 | > 5000
CN1CCN(c2ccc(F)cc2[C@@H]2S[C@@H](CC(=O)N3CCC(n4c(=O)[nH]c5ncccc54)CC3)C(=O)N2CCC(C)(C)C)CC1 [Compound 394] | < 1000 | < 1000
CN1CCN(c2ccc(F)cc2[C@H]2S[C@@H](CC(=O)N3CCC(n4c(=O)[nH]c5ncccc54)CC3)C(=O)N2CCC(C)(C)C)CC1 [Compound 397] | > 5000 | > 5000
CN(c1ccccc1C1SC(CC(=O)N2CCC(n3c(=O)[nH]c4ncccc43)CC2)C(=O)N1CCC(C)(C)C)[C@@H]1CCN(Cc2ccccc2)C1 (some centres unmarked) [Compound 402] | < 1000 | < 1000
CN(c1ccccc1C1SC(CC(=O)N2CCC(N3CCc4ccccc4NC3=O)CC2)C(=O)N1CCC(C)(C)C)[C@H]1CCN(Cc2ccccc2)C1 (some centres unmarked) [Compound 403] | 1000 to 5000 | < 1000

— patent publication US8163737B2 (Vertex Pharmaceuticals Incorporated, priority 2006, dated 2012)
